Biological target: Carbonic anhydrase 1 (Homo sapiens, UniProt P00915)
Sequence (P00915 whole entry): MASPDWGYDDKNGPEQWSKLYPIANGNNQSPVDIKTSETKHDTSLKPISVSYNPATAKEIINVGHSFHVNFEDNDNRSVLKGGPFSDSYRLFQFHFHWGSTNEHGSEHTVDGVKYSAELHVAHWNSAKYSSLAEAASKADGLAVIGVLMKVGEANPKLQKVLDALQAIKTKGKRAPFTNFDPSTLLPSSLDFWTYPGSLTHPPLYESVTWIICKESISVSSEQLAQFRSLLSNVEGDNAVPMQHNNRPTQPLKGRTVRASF

NS(=O)(=O)c1cccc(S(N)(=O)=O)c1
Ki: 28 µM
